Experimental data published in patent publication US20190298796A1, “Therapeutic Compositions from the Brevinin-1 Family of Peptides and Uses Thereof” (priority 2016, published 2019).
Values after ≈ are worked out from the molar mass of the structure shown. Residues, ends and D or L forms follow the SMILES beside them.

Assays:
[1] = tested on: Bacillus coagulans ATCC 7050; assay type: cell-based; settings: lowest concentration killing entire bacteria, 24 hrs
Excerpt: (§1) Antimicrobial activity: Broth dilution method [39] was used to assess the antimicrobial activity of the peptides. Bacterial strains used for in vitro antibacterial assay were Staphylococcus aureus (MTCC 9542), Bacillus subtilis (MTCC 14416), Bacillus coagulans (ATCC 7050), Methicillin-resistant Staphylococcus aureus (MRSA) (ATCC 43300), Streptococcus mutans (MTCC 497), Streptococcus gordonii (MTCC 2695), Vibrio cholerae (MCV09), Escherichia coli (ATCC 25922), Vancomycin-resistant enterococcus (VRE) (ATCC 29212) and gram-negative fish pathogens Aeromonas hydrophila (ATCC 7966) and Aeromonas sobria (ATCC 43979). Bacterial cultures were grown in Muller Hinton broth (MHB) (Hi-media) by overnight incubation at 37° C. with constant shaking. Microbial cultures having 10^6 CFU/ml were made from OD600: 0.6 cultures. 400 μM stock solutions of peptides were prepared in autoclaved double distilled water and diluted in MHB to make concentrations ranging from 0.7 to 100 μM. Bacterial inoculum without peptide was used as the negative control.

[2] = tested on: Bacillus subtilis MTCC 14416; assay type: cell-based; settings: lowest concentration killing entire bacteria, 24 hrs
Excerpt: as §1

[3] = tested on: human erythrocytes; assay type: cell-based; settings: 60 min, at the peptide's MIC for Staphylococcus aureus MTCC 9542 (MIC in parenthesis)
Procedure: Hemolytic Activity: Hemolytic assay was carried out as previously described. Briefly, 10% (v/v) suspensions of fresh human erythrocytes in phosphate buffered saline (pH 7.2) were incubated with different concentrations (100 μM-0.7 μM) of B1/1 COOH & B1/2 COOH, B1/1 CONH2 & B1/2 CONH2 and cyclic B1/1 CONH2 & cyclic B1/2 CONH2 and incubated at 3^7° C. for 60 min. The cells were centrifuged (3000×g) for 5 min, and absorbance of the supernatant was measured at 595 nm. Hemolysis caused by 10% Triton X-100 was taken as positive control. Percentage hemolysis was calculated by measuring the mean amount of hemoglobin released as a result of lysis of erythrocyte from three independent experiments.

[4] = tested on: Staphylococcus aureus MTCC 9542; assay type: cell-based; settings: lowest peptide concentration required to kill entire bacteria, 24 hrs, NA = not active up to the highest concentration tested
Excerpt: as §1

[5] = tested on: gram-negative bacteria; assay: MIC range over the tested gram-negative bacteria; assay type: cell-based
Excerpt: as §1

[6] = tested on: MRSA ATCC 43300; assay type: cell-based, Methicillin-resistant Staphylococcus aureus; settings: lowest concentration killing entire bacteria, 24 hrs
Excerpt: as §1

[7] = tested on: VRE ATCC 29212; settings: lowest concentration killing entire bacteria, 24 hrs
Excerpt: as §1

For `CC[C@H](C)[C@H](NC(=O)CNC(=O)[C@@H]1CCCN1C(=O)[C@H](Cc1ccccc1)NC(=O)[C@@H](N)Cc1ccccc1)C(=O)N[C@H](C(=O)N[C@@H](CCCCN)C(=O)N[C@H](C(=O)N[C@@H](C)C(=O)N[C@@H](CO)C(=O)N[C@@H](C)C(=O)N[C@H](C(=O)N[C@@H](CC(C)C)C(=O)N1CCC[C@H]1C(=O)N[C@H](C(=O)N[C@@H](C)C(=O)N[C@H](C(=O)N[C@@H](CS)C(=O)N[C@@H](C)C(=O)N[C@H](C(=O)N[C@H](C(=O)N[C@@H](CCCCN)C(=O)N[C@@H](CCCNC(=N)N)C(=O)N[C@@H](CS)C(=O)O)[C@@H](C)O)[C@@H](C)CC)[C@@H](C)CC)[C@@H](C)O)[C@@H](C)CC)C(C)C)[C@@H](C)CC` [B1/1 COOH] (H-FFPGIIKVASAILPTAICAITKRC-OH; N-terminus assumed), the MIC [1] was 25 µM (≈ 63.4 µg/mL), the MIC [2] was 98 µM (≈ 248 µg/mL) and the “Percentage hemolysis at MIC” value [3] was 20%. For the same molecule, the MIC [4] was 9.5 µM (≈ 24.1 µg/mL), the “Activity against gram-negative bacteria (MIC range)” value [5] was “not with gram-negative bacteria” and the MIC [6] was 25 µM (≈ 63.4 µg/mL). It also gave an MIC [7] of 50 µM (≈ 127 µg/mL).
